This test has as its target T1, HIV-integrase (Human immunodeficiency virus type 1 group M subtype B, UniProt P12497).
T1 construct: Recombinant integrase (0.26 ng) was incubated with the beads
The test can be described thus: HIV-Integrase Inhibition Activity (SPA bead strand transfer assay). The format is biochemical. The note with it: recombinant integrase, in vitro. The method, then: HIV-Integrase Inhibition Activity. To evaluate in-vitro activity against HIV-integrase, 5 pmole of biotin labeled substrate DNA was bound to 100 μg of Streptavidin coated PVT SPA beads (Amersham Pharmacia Biotech). Recombinant integrase (0.26 ng) was incubated with the beads for 90 min at 37° C. Unbound enzyme was removed by washing the complex followed by addition of inhibitors and 0.1 fmol of P33 labeled target DNA. The reaction was stopped by adding EDTA to a final concentration of […]. Samples were counted in TopCountNXT (Packard) and the CPM was used as a measure of integration. The reaction condition was as described in A. Engelman and R. Craigie, J. Virol. 69, 5908–5911 (1995). The sequences of substrate and target DNA were described in Nucleic Acid Research 22, 1121–1122 (1994).

The term IC50 denotes the concentration needed to halve the response being measured. `CC1(C)Cn2c(nc(C(=O)NCc3ccc(F)cc3)c(O)c2=O)S1` [Example 41, N-(4-Fluorobenzyl)-6-hydroxy-2,2-dimethyl-5-oxo-3,5-dihydro-2H-thiazolo[3,2-a]pyrimidine-7-carboxamide]: the IC50 was at least 50 nM.
The value for `CN1C(=O)Cn2c(nc(C(=O)NCc3ccc(F)c(Cl)c3)c(O)c2=O)N1C` [Example 28, N-(3-Chloro-4-fluorobenzyl)-1,2-dimethyl-7-hydroxy-3,6-dioxo-2,3,4,6-tetrahydro-1H-pyrimido[2,1-c][1,2,4]triazine-8-carboxamide] was 16 to 49000 nM; that for `CN1C(=O)Cn2c1nc(C(=O)NCc1ccc(F)c(Cl)c1)c(O)c2=O` [Example 12, N-(3-Chloro-4-fluorobenzyl)-6-hydroxy-1-methyl-2,5-dioxo-1,2,3,5-tetrahydroimidazo[1,2-a]pyrimidine-7-carboxamide] was 16 to 49000 nM.
Consider `Cc1ccc(CNC(=O)c2nc3n(c(=O)c2O)CCS3)cc1C` [Example 39, N-(3,4-Dimethylbenzyl)-6-hydroxy-5-oxo-3,5-dihydro-2H-thiazolo[3,2-a]pyrimidine-7-carboxamide], for which the IC50 was 16 to 49000 nM.
The value for `Cc1cc(CNC(=O)c2nc3n(c(=O)c2O)CC(=O)N(C)N3C)ccc1F` [Example 27, N-(4-Fluoro-3-methylbenzyl)-1,2-dimethyl-7-hydroxy-3,6-dioxo-2,3,4,6-tetrahydro-1H-pyrimido[2,1-c][1,2,4]triazine-8-carboxamide] was 16 to 49000 nM; that for `Cc1cc(CNC(=O)c2nc3n(c(=O)c2O)CC(=O)N2CCCCN32)ccc1F` [Example 32, 2-Hydroxy-1,9-dioxo-5,6,7,8,9,10-hexahydro-1H-4,4b,8a,10a-tetraaza-phenanthrene-3-carboxylic acid 4-fluoro-3-methyl-benzylamide] was 4 to 15 nM; that for `O=C(NCc1ccc(F)cc1)c1nc2n(c(=O)c1O)CCS2` [Example 36, N-(4-Fluorobenzyl)-6-hydroxy-5-oxo-3,5-dihydro-2H-thiazolo[3,2-a]pyrimidine-7-carboxamide] was 4 to 15 nM.
Turning to `CC1(C)NC(=O)Cn2c1nc(C(=O)NCc1ccc(F)cc1)c(O)c2=O` [Example 45, N-(4-fluorobenzyl)-3-hydroxy-9,9-dimethyl-4,7-dioxo-6,7,8,9-tetrahydro-4H-pyrazino[1,2-a]pyrimidine-2-carboxamide], the IC50 lay in the range of 16 to 49000 nM.
Turning to `O=C1Cn2c(nc(C(=O)NCc3ccc(F)cc3)c(O)c2=O)N1` [Example 1, 6-Hydroxy-2,5-dioxo-1,2,3,5-tetrahydro-imidazo[1,2-a]pyrimidine-7-carboxylic acid 4-fluoro-benzylamide], the IC50 is at least 50 nM.
To `O=C(NCc1ccc(F)cc1)c1nc2n(c(=O)c1O)CC(=O)N1CCC[C@@H]21` [Example 46, (S)-7-Hydroxy-4,6-dioxo-2,3,4,5,6,9b-hexahydro-1H-3a,5a,9-triaza-benz[e]indene-8-carboxylic acid 4-fluoro-benzylamide] belongs at least 50 nM.
In the case of `O=C1Cn2c(nc(C(=O)NCc3ccc(F)cc3)c(O)c2=O)CN1` [Example 43, N-(4-Fluorobenzyl)-3-hydroxy-4,7-dioxo-6,7,8,9-tetrahydro-4H-pyrazino[1,2-a]pyrimidine-2-carboxamide], the IC50 was at least 50 nM.
To `CN1C(=O)Cn2c(nc(C(=O)NCc3ccc(Cl)c(Cl)c3)c(O)c2=O)N1C` [Example 26, N-(3,4-Dichlorobenzyl)-1,2-dimethyl-7-hydroxy-3,6-dioxo-2,3,4,6-tetrahydro-1H-pyrimido[2,1-c][1,2,4]triazine-8-carboxamide] belongs 16 to 49000 nM.
The value for `CNC(=O)c1cc(F)ccc1CNC(=O)c1nc2n(c(=O)c1O)CC(C)(C)S2` [Example 42, N-(4-Fluoro-2-(methylcarbamoyl)benzyl)-6-hydroxy-2,2-dimethyl-5-oxo-3,5-dihydro-2H-thiazolo[3,2-a]pyrimidine-7-carboxamide] was at least 50 nM; that for `O=C(NCc1ccc(F)cc1)c1nc2n(c(=O)c1O)CC(=O)N1CCCN21` [Example 34, 7-Hydroxy-4,6-dioxo-2,3,4,5-tetrahydro-1H,6H-3a,5a,9,9b-tetraaza-benz[e]indene-8-carboxylic acid 4-fluoro-benzylamide] was 16 to 49000 nM; that for `CNC(=O)c1cc(F)ccc1CNC(=O)c1nc2n(c(=O)c1O)CCC(=O)N2C` [Example 23, N-(4-Fluoro-2-(methylcarbamoyl)benzyl)-3-hydroxy-9-methyl-4,8-dioxo-6,7,8,9-tetrahydro-4H-pyrimido[1,2-a]pyrimidine-2-carboxamide] was 4 to 15 nM.
Regarding `CN1C(=O)Cn2c1nc(C(=O)NCc1ccc(F)cc1)c(O)c2=O` [Example 9, N-(4-Fluorobenzyl)-6-hydroxy-1-methyl-2,5-dioxo-1,2,3,5-tetrahydroimidazo[1,2-a]pyrimidine-7-carboxamide], the IC50 is at least 50 nM.
Turning to `O=C(NCc1ccc(F)cc1)c1nc2n(c(=O)c1O)CC(=O)N1CCCCN21` [Example 33, 2-Hydroxy-1,9-dioxo-5,6,7,8,9,10-hexahydro-1H-4,4b,8a,10a-tetraaza-phenanthrene-3-carboxylic acid 4-fluoro-benzylamide], the IC50 was 16 to 49000 nM.
The value for `Cc1cc(CNC(=O)c2nc3n(c(=O)c2O)CC(=O)N2CCCN32)ccc1F` [Example 35, 7-Hydroxy-4,6-dioxo-2,3,4,5-tetrahydro-1H,6H-3a,5a,9,9b-tetraaza-benz[e]indene-8-carboxylic acid 4-fluoro-3-methyl-benzylamide] was 4 to 15 nM; that for `CN1C(=O)Cn2c1nc(C(=O)NCc1ccc(Cl)c(Cl)c1)c(O)c2=O` [Example 10, N-(3,4-Dichlorobenzyl)-6-hydroxy-1-methyl-2,5-dioxo-1,2,3,5-tetrahydroimidazo[1,2-a]pyrimidine-7-carboxamide] was 4 to 15 nM.
To `CN1Nc2nc(C(=O)NCc3ccc(Cl)c(Cl)c3)c(O)c(=O)n2CC1=O` [Example 31, N-(3,4-Dichlorobenzyl)-7-hydroxy-2-methyl-3,6-dioxo-2,3,4,6-tetrahydro-1H-pyrimido[2,1-c][1,2,4]triazine-8-carboxamide] belongs 4 to 15 nM; to `Cc1cc(CNC(=O)c2nc3n(c(=O)c2O)CCS3)ccc1F` [Example 37, N-(4-Fluoro-3-methylbenzyl)-6-hydroxy-5-oxo-3,5-dihydro-2H-thiazolo[3,2-a]pyrimidine-7-carboxamide], 4 to 15 nM; to `Cc1cc(CNC(=O)c2nc3n(c(=O)c2O)CC(=O)N(C)N3)ccc1F` [Example 30, N-(4-Fluoro-3-methylbenzyl)-7-hydroxy-2-methyl-3,6-dioxo-2,3,4,6-tetrahydro-1H-pyrimido[2,1-c][1,2,4]triazine-8-carboxamide], at least 50 nM.
To `CN1C(=O)Cn2c(nc(C(=O)NCc3ccc(F)cc3)c(O)c2=O)N1C` [Example 25, N-(4-Fluorobenzyl)-1,2-dimethyl-7-hydroxy-3,6-dioxo-2,3,4,6-tetrahydro-1H-pyrimido[2,1-c][1,2,4]triazine-8-carboxamide] belongs 16 to 49000 nM.
Consider `Cc1cc(CNC(=O)c2nc3n(c(=O)c2O)CC(=O)N3Cc2ccccc2)ccc1F` [Example 15, N-(4-Fluoro-3-methylbenzyl)-1-benzyl-6-hydroxy-2,5-dioxo-1,2,3,5-tetrahydroimidazo[1,2-a]pyrimidine-7-carboxamide], for which the IC50 fell in the range of 16 to 49000 nM.
